Among the data in PubChem BioAssay AID2305 (GlaxoSmithKline (GSK), 2010) are IC50 values, retold here.

This assay relates to P. falciparum 3D7 growth, pLDH absorbance. Nature of the assay: P. falciparum 3D7 growth inhibition, dose response, strain 3D7 (AID 2305).

The molecule `COc1cc(Cc2cnc(N)nc2N)ccc1OCc1ccc(F)c(F)c1` registered an IC50 of 910 nM.

For `CCN(CC)CCN(Cc1ccc(-c2ccc(C(F)(F)F)cc2)cc1)C(=O)Cn1c(CCc2cccc(F)c2F)nc(=O)c2cc(C)ccc21`, the IC50 came to 940 nM. The IC50 values of the last two molecules are within 1.5-fold of each other.

Take `CCCc1cc(OC)c(CC2c3cc(O)c(Cl)cc3CCN2C)cc1OC` (stereo not drawn): the IC50 stood at 570 nM.

On to `Nc1nc(N)c2nc(C3CC=CCC3)c(N)nc2n1` (stereo not drawn), for which the IC50 was 160 nM. Compared with the last molecule, the IC50 is about 3.6-fold lower.

The molecule `CCCC(C)Nc1nc(C)cc(N[C@@H](Cc2ccccc2)C(=O)Nc2ccccc2)n1` (stereo partly drawn) had an IC50 of 860 nM.

On to `Cc1ccc(CCC(C)NCC(O)c2cccc(Cl)c2)cc1` (stereo not drawn), for which the IC50 turned out to be 800 nM.

The molecule `Cc1ccc(-c2cc(C(=O)Nc3ccc(S(=O)(=O)N4CCOCC4)cc3)[nH]n2)c(O)c1C` yielded an IC50 of 920 nM.

Consider `Cc1cc(N2CCCC2)nc(Nc2ccc(NC(=O)c3ccc4c(c3)OCO4)cc2)n1`, for which the IC50 stood at 810 nM.

The molecule `c1ccc(Oc2ccc(Nc3ccnc4cc(-c5cccc(CN6CCOCC6)c5)ccc34)cc2)cc1` displayed an IC50 of 340 nM.

In the case of `O=C(Nc1cccc(C(F)(F)F)c1)c1ccc(S(=O)(=O)NC2CCN(CC3CCCCC3)C2)cc1` (stereo not drawn), the IC50 was determined as 790 nM.

Take `CC(C)(C)c1ccc(NC(=O)c2ccc(CN3CCCN(CC4CCCCC4)CC3)cc2)cc1`: the IC50 was determined as 540 nM.

With `Cc1cc(Cl)ccc1N(Cc1ccccc1)c1ccnc(Cl)n1`, the IC50 was found to be 860 nM.

Molecule `CC(C)(CNC(=O)[C@@H]1CCCN(CCOc2ccc(Cl)cc2)C1)c1nc(-c2ccc(Cl)c(O)c2)c(-c2ccncc2)[nH]1` gave an IC50 of 880 nM.

`COc1ccc(-c2cccc(NC(=O)c3cccc(C#N)c3)c2)cc1CNC(C)C` returned an IC50 of 690 nM.

Consider `O=C(CCN(Cc1ccco1)c1nc(-c2ccc(F)cc2)nc2ccccc12)NC1CC1`, for which the IC50 stood at 1580 nM.

`CC(C#N)Cc1ccc(-c2cnc(N)c3cc(-c4ccnc(N)n4)ccc23)cc1` (stereo not drawn) yielded an IC50 of 990 nM. Against the preceding molecule, the IC50 is about 1.6-fold lower.

Turning to `CNC(=O)c1ccccc1Nc1nc(Nc2ccc(CCN3CCN(C)CC3)cc2)ncc1Cl`, the IC50 was found to be 650 nM.

The molecule `CC(C)CNCc1ccc(-c2cccc(CNc3ccc4ncccc4c3)c2)cc1` returned a half-inhibitory concentration (IC50) of 910 nM.

As for `O=C(NCC1CCCCC1)c1cc(=O)c2ccccc2o1`, the IC50 is 320 nM.

Turning to `Cc1cc(NC(=O)Nc2cccc(Cl)c2Cl)c2ccccc2n1`, the IC50 came out at 740 nM. This IC50 lies about 2.3-fold higher than the previous one.

Molecule `CCOc1ccc(C(C)NC(=O)Nc2ccccc2)cc1OCC` (stereo not drawn) yielded an IC50 of 900 nM. This IC50 and that of the molecule before are within 1.5-fold of each other.

In turn, `CN(C)c1cccc2c(S(=O)(=O)Nc3cccc(CCN4CCC(N5CCCCC5)CC4)c3)cccc12` displayed an IC50 of 980 nM.

Molecule `Nc1ncc(-c2ccsc2)c2ccc(-c3cnc[nH]3)cc12` displayed a half-maximal inhibitory concentration (IC50) of 570 nM.

For the molecule `O=C(Nc1ccc(C(=O)N2CCN(CCN3CCN(c4cccc(C(F)(F)F)c4)CC3)CC2)cc1)c1ccc(OC(F)(F)F)cc1`, the half-inhibitory concentration (IC50) was determined as 690 nM.

Consider `O=C(Nc1ccc(Cl)cc1F)NC1CCN(CCCCCNC(=O)[C@@H]2C[C@H]2c2ccc(Cl)c(Cl)c2)CC1`, for which the IC50 stood at 510 nM.

In turn, `Oc1cccc(Nc2nc(NCC3CCCO3)c3ccccc3n2)c1` (stereo not drawn) yielded an IC50 of 810 nM.

Turning to `O=C(NCc1ccc(Cl)cc1)c1ccc(CN2CCCN(CC3CCCCC3)CC2)cc1`, the 50% inhibitory concentration (IC50) turned out to be 1700 nM.

In turn, `CCc1ccnc2c(N3CCCC3=O)cc(C(=O)N[C@@H](Cc3ccccc3)[C@H](O)CNC3CCOCC3)cc12` came in with an IC50 of 380 nM.

In the case of `C=C[C@H]1CN2CC[C@H]1C[C@H]2[C@H](O)c1ccnc2ccccc12`, the IC50 amounted to 170 nM.

`COc1nc2c(CCN3CC[C@H](NCc4cc(C#N)c5c(c4)OCCO5)[C@H](O)C3)ccnc2cc1F`: the IC50 was 780 nM.

`O=C(NCc1ccccc1)c1ccc(C(=O)NCC2CNCCO2)cc1` (stereo not drawn): the IC50 turned out to be 1140 nM.

In the case of `CCOC(=O)N(C)/N=C/[C@H](CCc1ccccc1)NC(=O)[C@H](CC(C)C)NC(=O)c1cc2cccc(OC)c2o1`, the 50% inhibitory concentration (IC50) amounted to 560 nM.

With `COc1ccccc1CCNc1ncnc2c1[nH]c1ccc(F)cc12`, the IC50 was determined as 840 nM.

Molecule `O=c1cc(NCCCCNCc2ccc(Br)c(Br)c2)[nH]c2ccccc12` returned an IC50 of 860 nM.

`COc1cc(NC(=O)Nc2cccc3ccccc23)c(OC)cc1Cl`: the IC50 stood at 480 nM.

`Cc1cccc(N2C(N)=NC(N)=NC2(C)C)c1C`: the IC50 stood at 760 nM.

`Cc1cccc2[nH]c(-c3ccc(-c4ccc(CN5CCCCC5CO)cc4)cc3)nc12` (stereo not drawn) came in with an IC50 of 810 nM.

`O=C(Nc1ccccc1)N1CCOC(CCN2CCC(F)(F)CC2)(c2ccc(Cl)c(Cl)c2)C1` (stereo not drawn) returned an IC50 of 190 nM.

Take `c1cc(CNCCN2CCNCC2)cc(-c2ccc(-c3nc4ccccc4[nH]3)cc2)c1`: the IC50 was found to be 1080 nM. This IC50 lies about 5.7-fold higher than the previous one.

Molecule `Fc1ccc2nc(-c3cccc(-c4cccc(CNCc5cnn(-c6ccccc6)n5)c4)c3)[nH]c2c1` displayed a 50% inhibitory concentration (IC50) of 970 nM.

`CCn1cc(C(=O)O)c(=O)c2cc(F)c(N3CCN(S(=O)(=O)c4ccc(N)cc4)CC3)cc21`: the IC50 came to 920 nM.

For the molecule `COc1ccc(OC)c(CNCC(O)c2cc(C(F)(F)F)cc(C(F)(F)F)c2)c1` (stereo not drawn), the IC50 stood at 440 nM.

Molecule `Oc1c(Cl)cc(-c2ccccc2)cc1CNC1CCCCC1` yielded an IC50 of 750 nM. Against the preceding molecule, the IC50 is about 1.7-fold higher.

The molecule `Cc1ccc(-c2cncc(-c3cc(NC4CCN(Cc5ccccc5)CC4)nc(-c4ccccc4)n3)c2)cc1` came in with an IC50 of 720 nM.

Take `Cc1[nH]c2ccccc2c(=O)c1-c1ccc(Cl)cc1`: the IC50 stood at 1000 nM.

For the molecule `Nc1c2ccccc2nc2cc(C(F)(F)F)ccc12`, the IC50 turned out to be 840 nM.

In the case of `Cc1csc(-c2nc(NCc3cccnc3)ncc2-c2ccsc2)n1`, the IC50 was 1190 nM.

With `COc1ccc2nccc(NC(=O)C3CCC(NCc4cnc(SC)c([N+](=O)[O-])c4)CC3)c2n1` (stereo not drawn), the half-maximal inhibitory concentration (IC50) was 930 nM.

In turn, `CC(=O)N(Cc1ccccc1-c1ccc(CNCCc2ccccc2)cc1)C1CCN(Cc2ccccc2)CC1` showed an IC50 of 480 nM.

On to `CCN(CC)CCN(Cc1ccc(-c2ccc(C(F)(F)F)cc2)cc1)C(=O)Cn1c(CCC2CCCCC2)nc(=O)c2ccccc21`, for which the IC50 was found to be 1390 nM. Against the preceding molecule, the IC50 is about 2.9-fold higher.

As to `CC(=O)Nc1ccc(S(=O)(=O)N2CCN(c3nc(NC4CCCC4)c4ccccc4n3)CC2)cc1`, the IC50 stood at 1030 nM.

For `Clc1ccc(Cc2nc3ccccc3[nH]2)cc1Cl`, the concentration for half-maximal inhibition (IC50) turned out to be 250 nM.

The molecule `COc1ccc2nccc(N(C)CC3(O)CCN(CCc4ccc5c(c4)OCCO5)CC3)c2n1` registered an IC50 of 140 nM.

As to `CCCCOc1cc2[nH]cc(C(=O)OCC)c(=O)c2cc1OCCCC`, the IC50 turned out to be 200 nM.

The molecule `O=C(NCCc1ccccc1)c1cc(-c2cccnc2)cnc1NCC1CC1` returned a concentration for half-maximal inhibition (IC50) of 850 nM.

As for `Nc1ncnc2cc(-c3cccc(S(N)(=O)=O)c3)sc12`, the IC50 is 150 nM.

Molecule `CCCCCCCN1CC[C@@H](CCCc2ccnc3ccc(OCC4CCCNC4)cc23)[C@@H](CC)C1` (stereo partly drawn) yielded an IC50 of 620 nM.

Turning to `N#Cc1cccc(NC(=O)NC2CCN(CCCCCNC(=O)[C@@H]3C[C@H]3c3ccc(Cl)c(Cl)c3)CC2)c1`, the IC50 was determined as 790 nM.

Regarding `O=C(NCCCCN1CCC(O)(c2ccc(Cl)cc2)CC1)c1ccc(Br)cc1`, the IC50 stood at 1250 nM. This IC50 is about 1.6-fold higher than that of the molecule before.

Consider `COC(=O)Nc1nc2cc3c(cc2s1)OCCO3`, for which the IC50 was 840 nM. The IC50 values of the last two molecules are within 1.5-fold of each other.

With `CC(C)(C)c1ccc(-c2csc(NC(=O)CC(c3ccccc3)c3ccccc3)n2)cc1`, the IC50 came out at 1150 nM.

On to `C=C(C)Cn1cc(C2CCN(CCCCNC(=O)c3sc(-c4ccc(Cl)cc4Cl)nc3CO)CC2)c2ccccc21`, for which the half-maximal inhibitory concentration (IC50) turned out to be 1150 nM.

With `COc1ccc2nccc([C@@H](O)CN3CCC(NCc4[nH]c5ccccc5c4F)CC3)c2c1`, the IC50 was determined as 250 nM.

With `O=C(/C=C/c1ccc(Cl)c(Cl)c1)NCCCCCCN1CCN(C(=O)Nc2ccc(Cl)c(C(F)(F)F)c2)CC1`, the half-maximal inhibitory concentration (IC50) came out at 530 nM.

`Cc1cccc(CCNC(=O)c2cc(Br)cc(N3CCN(c4ccncc4)CC3)c2)c1` had an IC50 of 870 nM.

Consider `COCCNCc1cccc(-c2cc3nccc(Nc4ccc(Oc5ccccc5)cc4)c3cc2Cl)c1`, for which the IC50 amounted to 1380 nM.

The molecule `O=c1cc(NCCCCNCc2cccc(Br)c2)[nH]c2ccccc12` displayed an IC50 of 730 nM.

For the molecule `Cc1c(C2CCN(CCCCNC(=O)c3ccc(-c4ccc(C#N)cc4)cc3)CC2)c2ccccc2n1CCO`, the IC50 was 1000 nM.

Turning to `CC[C@H]1CN2CC[C@H]1C[C@H]2[C@H](O)c1cc(-c2ccccc2F)nc2ccc(OC)cc12`, the IC50 is 80 nM.

Regarding `C[C@H]1CN(Cc2cccc(-c3cc(CNC(=O)c4cccc(CN5CCN(C/C=C/c6ccccc6)CC5)c4)ccc3F)c2)CCN1`, the IC50 was determined as 850 nM.

The molecule `Fc1ccc(-c2cncc(Nc3ccncc3)n2)cc1` had a half-maximal inhibitory concentration (IC50) of 1320 nM. This IC50 lies about 1.6-fold higher than the previous one.

Molecule `CN(/N=C/C=C/c1ccc(Cl)cc1)c1nc(NCCc2ccc(O)cc2)nc(N2CCNCC2)n1` showed an IC50 of 870 nM.

In the case of `O=C(Nc1cccc(C(F)(F)F)c1)NC1CCN(c2ccnc3ccccc23)CC1`, the 50% inhibitory concentration (IC50) was 990 nM. This IC50 and that of the molecule before are within 1.5-fold of each other.

`O=C(Nc1ccc(Cn2nc(Cl)c(N3CCNCC3)cc2=O)cc1)Nc1ccc(-c2ccccc2)cc1` registered an IC50 of 750 nM. This IC50 and that of the molecule before are within 1.5-fold of each other.

With `CCNc1cc(C)nc(Nc2ccc(NC(=O)c3cccs3)cc2)n1`, the IC50 turned out to be 1020 nM. The IC50 values of the last two molecules are within 1.5-fold of each other.

Molecule `CC[C@H]1CN(Cc2cccc(O)c2)CC[C@H]1CCCc1ccnc2ccc(O)cc12` displayed an IC50 of 530 nM.

Consider `O=C(Nc1cccc(Cl)c1N1CCOCC1)C(Cl)(Cl)Cl`, for which the IC50 stood at 980 nM.

As to `CC(=O)c1cccc2c(NC(=O)Nc3ccc4nccc(N5CCN(C)CC5)c4c3)cccc12`, the IC50 was found to be 400 nM. Against the preceding molecule, the IC50 is about 2.5-fold lower.

`CCC(C)c1ccc(NC(=O)C(C)c2ccc([N+](=O)[O-])cc2)cc1` (stereo not drawn) showed an IC50 of 180 nM.

`OC(CNc1ccnc(Nc2cccc(Cl)c2)n1)c1cccc(F)c1` (stereo not drawn) registered an IC50 of 970 nM.

In turn, `CCN1CCC(N(CCCCCCCCc2ccc(C(F)(F)F)cc2)C(=O)Cn2c(CCc3cccc(F)c3F)cc(=O)c3ccccc32)CC1` registered an IC50 of 1200 nM.

`COc1ccc(CN(C)CCCOc2ccc(NC(=O)c3cccc4c(=O)c5cccc(F)c5[nH]c34)cc2)cc1OC` registered a 50% inhibitory concentration (IC50) of 640 nM.

`COc1cc(-c2cnc(N)c(-c3nc4ccccc4[nH]3)c2)cc(OC)c1OC` yielded an IC50 of 190 nM. This IC50 is about 3.4-fold lower than that of the molecule before.

Regarding `O=C(/C=C/c1ccc(Cl)c(Cl)c1)Nc1cccc(CN2CCC(c3c[nH]c4ccccc34)CC2)c1`, the IC50 came out at 670 nM.

Consider `c1ccc(Oc2ccc(Nc3ccnc4c(-c5ccccn5)cccc34)cc2)cc1`, for which the IC50 stood at 990 nM.

As for `COC(=O)c1c(NC(=O)c2cccc(C(F)(F)F)c2)sc2c1CCN(Cc1ccccc1)C2`, the IC50 was 1340 nM.

In turn, `Clc1ccc(CNc2nc(NCCc3cnc[nH]3)nc(Nc3ccc4c(c3)OCO4)n2)cc1` had an IC50 of 950 nM.

Take `N#Cc1ccc(-c2ccc(C(=O)NCC3CCN(CCN4CCC(c5ccc6c(c5OCC(N)=O)CCCC6)CC4)CC3)cc2)cc1`: the IC50 came to 440 nM.
